Measured values reported in the kinase profiling compilation of Christmann-Franck et al. (2016).

What was measured:
Assay in all cases: Caliper, Mobility shift assay off-chip
GSK3A (human) = GSK3A (human) (UniProt P49840)
EPHA5 (human) = EPHA5 (human) (UniProt P54756)
ITK (human) = ITK (human) (UniProt Q08881)
HCK (human) = HCK (human) (UniProt P08631)
[1] = test system: FLT3 (human), P36888 [D835Y]
PRKG1 (human) = PRKG1 (human) (UniProt Q13976)
CDC42BPB (human) = CDC42BPB (human) (UniProt Q9Y5S2)
BMX (human) = BMX (human) (UniProt P51813)
SRPK1 (human) = SRPK1 (human) (UniProt Q96SB4)
PRKD2 (human) = PRKD2 (human) (UniProt Q9BZL6)
INSR (human) = INSR (human) (UniProt P06213)
INSR (human), sequence (P06213 whole entry, looked up): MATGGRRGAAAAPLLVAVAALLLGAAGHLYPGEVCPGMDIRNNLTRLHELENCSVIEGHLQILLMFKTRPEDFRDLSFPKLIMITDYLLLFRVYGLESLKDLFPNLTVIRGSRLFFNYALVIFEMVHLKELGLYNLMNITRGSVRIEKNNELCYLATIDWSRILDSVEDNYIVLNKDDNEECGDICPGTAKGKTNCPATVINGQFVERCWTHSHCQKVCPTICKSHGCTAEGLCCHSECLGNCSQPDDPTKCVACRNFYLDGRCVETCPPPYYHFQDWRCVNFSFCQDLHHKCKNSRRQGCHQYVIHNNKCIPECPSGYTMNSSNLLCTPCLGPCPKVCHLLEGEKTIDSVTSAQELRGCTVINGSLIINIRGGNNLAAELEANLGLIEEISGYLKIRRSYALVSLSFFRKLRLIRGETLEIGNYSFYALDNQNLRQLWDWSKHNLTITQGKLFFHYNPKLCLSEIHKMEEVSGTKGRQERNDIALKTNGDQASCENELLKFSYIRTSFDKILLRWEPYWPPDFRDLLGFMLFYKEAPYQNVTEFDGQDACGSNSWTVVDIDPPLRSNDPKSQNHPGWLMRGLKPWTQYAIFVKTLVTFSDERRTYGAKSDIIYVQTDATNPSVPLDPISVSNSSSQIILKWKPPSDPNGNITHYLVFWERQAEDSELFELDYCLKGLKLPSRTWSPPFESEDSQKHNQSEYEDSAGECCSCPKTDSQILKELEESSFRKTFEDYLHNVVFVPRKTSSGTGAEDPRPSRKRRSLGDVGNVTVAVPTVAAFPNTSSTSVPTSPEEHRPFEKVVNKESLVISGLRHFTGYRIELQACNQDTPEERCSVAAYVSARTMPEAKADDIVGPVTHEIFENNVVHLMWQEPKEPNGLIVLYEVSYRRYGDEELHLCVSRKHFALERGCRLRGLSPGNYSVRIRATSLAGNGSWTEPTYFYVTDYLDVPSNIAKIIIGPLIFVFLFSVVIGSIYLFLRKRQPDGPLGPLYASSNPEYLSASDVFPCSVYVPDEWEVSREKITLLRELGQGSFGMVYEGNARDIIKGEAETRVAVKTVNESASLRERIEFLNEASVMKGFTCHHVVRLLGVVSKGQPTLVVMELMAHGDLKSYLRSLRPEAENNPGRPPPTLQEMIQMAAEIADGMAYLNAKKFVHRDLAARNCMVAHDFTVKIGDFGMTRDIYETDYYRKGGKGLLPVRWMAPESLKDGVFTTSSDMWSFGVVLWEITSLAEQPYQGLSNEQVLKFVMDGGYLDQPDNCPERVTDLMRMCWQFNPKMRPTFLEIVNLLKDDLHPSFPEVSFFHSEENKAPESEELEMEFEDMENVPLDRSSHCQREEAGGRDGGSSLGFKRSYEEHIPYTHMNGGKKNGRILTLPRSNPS

SGK3 (human) = SGK3 (human) (UniProt Q96BR1)
SGK3 (human), sequence (Q96BR1 whole entry, looked up): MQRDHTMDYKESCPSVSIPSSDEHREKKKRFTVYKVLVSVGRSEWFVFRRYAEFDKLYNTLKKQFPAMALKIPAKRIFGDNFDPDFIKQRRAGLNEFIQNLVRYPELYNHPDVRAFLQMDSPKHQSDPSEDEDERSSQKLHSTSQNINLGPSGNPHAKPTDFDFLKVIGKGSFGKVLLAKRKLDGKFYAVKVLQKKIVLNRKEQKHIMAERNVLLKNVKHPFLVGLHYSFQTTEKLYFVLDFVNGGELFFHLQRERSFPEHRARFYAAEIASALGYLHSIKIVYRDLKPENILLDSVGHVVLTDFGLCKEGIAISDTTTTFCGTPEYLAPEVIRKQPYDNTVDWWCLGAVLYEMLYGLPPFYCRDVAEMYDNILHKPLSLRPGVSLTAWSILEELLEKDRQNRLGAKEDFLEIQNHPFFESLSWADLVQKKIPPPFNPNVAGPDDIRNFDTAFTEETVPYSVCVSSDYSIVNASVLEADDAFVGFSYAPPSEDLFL

EPHB2 (human) = EPHB2 (human) (UniProt P29323)
FGR (human) = FGR (human) (UniProt P09769)
PAK2 (human) = PAK2 (human) (UniProt Q13177)
PAK2 (human), sequence (Q13177 whole entry, looked up): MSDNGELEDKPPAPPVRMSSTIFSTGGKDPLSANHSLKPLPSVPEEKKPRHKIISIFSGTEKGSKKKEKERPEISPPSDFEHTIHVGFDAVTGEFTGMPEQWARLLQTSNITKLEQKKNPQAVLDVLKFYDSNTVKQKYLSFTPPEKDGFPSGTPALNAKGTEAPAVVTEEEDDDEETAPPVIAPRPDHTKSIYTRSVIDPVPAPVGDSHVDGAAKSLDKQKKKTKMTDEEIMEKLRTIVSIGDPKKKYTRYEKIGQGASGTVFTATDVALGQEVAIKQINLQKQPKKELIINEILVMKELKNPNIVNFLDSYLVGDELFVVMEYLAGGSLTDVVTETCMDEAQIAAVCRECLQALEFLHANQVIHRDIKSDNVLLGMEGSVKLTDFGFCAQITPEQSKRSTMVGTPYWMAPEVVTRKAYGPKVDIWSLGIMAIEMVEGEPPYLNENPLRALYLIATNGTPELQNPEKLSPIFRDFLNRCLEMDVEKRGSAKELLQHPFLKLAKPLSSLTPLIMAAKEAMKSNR

YES1 (human) = YES1 (human) (UniProt P07947)
YES1 (human), sequence (P07947 whole entry, looked up): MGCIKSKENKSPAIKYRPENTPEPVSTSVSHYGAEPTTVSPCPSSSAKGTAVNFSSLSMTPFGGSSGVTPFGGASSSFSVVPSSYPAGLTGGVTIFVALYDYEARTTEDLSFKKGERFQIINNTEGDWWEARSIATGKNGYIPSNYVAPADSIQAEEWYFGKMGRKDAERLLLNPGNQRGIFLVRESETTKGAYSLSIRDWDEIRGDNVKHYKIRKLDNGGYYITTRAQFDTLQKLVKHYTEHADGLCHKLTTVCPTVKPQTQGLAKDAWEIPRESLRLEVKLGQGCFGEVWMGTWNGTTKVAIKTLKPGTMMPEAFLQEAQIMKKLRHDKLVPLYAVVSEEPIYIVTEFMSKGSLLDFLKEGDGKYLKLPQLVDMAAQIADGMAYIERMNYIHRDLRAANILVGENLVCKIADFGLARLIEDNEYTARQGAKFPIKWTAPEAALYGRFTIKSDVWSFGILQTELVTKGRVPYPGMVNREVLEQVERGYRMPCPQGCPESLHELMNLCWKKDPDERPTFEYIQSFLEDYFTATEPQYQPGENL

NEK7 (human) = NEK7 (human) (UniProt Q8TDX7)
LYN (human) = LYN (human) (UniProt P07948)
LYN (human), sequence (P07948 whole entry, looked up): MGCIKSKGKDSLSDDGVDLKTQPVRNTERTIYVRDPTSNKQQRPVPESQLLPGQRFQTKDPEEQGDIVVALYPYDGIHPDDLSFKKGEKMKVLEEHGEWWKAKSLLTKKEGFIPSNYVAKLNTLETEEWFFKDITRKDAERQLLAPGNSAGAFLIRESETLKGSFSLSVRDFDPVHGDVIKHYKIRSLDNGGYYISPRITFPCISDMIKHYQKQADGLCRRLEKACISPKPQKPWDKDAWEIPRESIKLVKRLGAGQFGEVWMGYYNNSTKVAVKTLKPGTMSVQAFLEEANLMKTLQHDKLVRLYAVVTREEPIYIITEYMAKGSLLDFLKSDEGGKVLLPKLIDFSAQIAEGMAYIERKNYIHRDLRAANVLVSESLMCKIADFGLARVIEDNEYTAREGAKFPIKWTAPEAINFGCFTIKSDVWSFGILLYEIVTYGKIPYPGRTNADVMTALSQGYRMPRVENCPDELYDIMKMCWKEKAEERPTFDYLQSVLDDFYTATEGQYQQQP

TYRO3 (human) = TYRO3 (human) (UniProt Q06418)
NTRK1 (human) = NTRK1 (human) (UniProt P04629)
MARK1 (human) = MARK1 (human) (UniProt Q9P0L2)
TSSK2 (human) = TSSK2 (human) (UniProt Q96PF2)
TSSK2 (human), sequence (Q96PF2 whole entry, looked up): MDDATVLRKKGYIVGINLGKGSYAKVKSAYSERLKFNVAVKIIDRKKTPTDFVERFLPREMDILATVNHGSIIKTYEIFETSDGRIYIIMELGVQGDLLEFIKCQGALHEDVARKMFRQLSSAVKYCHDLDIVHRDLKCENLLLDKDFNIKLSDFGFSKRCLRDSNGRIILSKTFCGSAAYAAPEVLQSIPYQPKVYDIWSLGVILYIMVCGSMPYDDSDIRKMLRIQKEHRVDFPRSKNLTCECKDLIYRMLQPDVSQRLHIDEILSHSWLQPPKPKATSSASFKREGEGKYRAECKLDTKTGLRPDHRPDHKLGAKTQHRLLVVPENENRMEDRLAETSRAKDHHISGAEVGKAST

DMPK (human) = DMPK (human) (UniProt Q09013)
DMPK (human), sequence (Q09013 whole entry, looked up): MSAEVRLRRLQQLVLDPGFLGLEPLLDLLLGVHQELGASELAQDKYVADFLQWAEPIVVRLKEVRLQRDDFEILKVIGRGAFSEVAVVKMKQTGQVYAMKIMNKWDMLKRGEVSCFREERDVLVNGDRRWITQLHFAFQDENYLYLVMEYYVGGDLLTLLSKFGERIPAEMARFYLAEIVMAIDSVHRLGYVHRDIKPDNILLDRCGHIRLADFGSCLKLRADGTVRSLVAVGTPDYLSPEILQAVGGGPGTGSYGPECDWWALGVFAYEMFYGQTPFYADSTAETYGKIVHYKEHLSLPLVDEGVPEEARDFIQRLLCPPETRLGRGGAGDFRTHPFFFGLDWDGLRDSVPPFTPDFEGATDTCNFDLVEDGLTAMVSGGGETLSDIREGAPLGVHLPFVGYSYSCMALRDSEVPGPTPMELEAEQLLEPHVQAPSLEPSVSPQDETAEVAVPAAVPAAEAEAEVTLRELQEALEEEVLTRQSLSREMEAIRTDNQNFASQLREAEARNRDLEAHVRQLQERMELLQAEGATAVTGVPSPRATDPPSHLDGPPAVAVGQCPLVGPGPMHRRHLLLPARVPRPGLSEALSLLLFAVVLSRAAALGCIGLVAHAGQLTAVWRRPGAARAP

DDR2 (human) = DDR2 (human) (UniProt Q16832)
SYK (human) = SYK (human) (UniProt P43405)
PRKX (human) = PRKX (human) (UniProt P51817)
FLT4 (human) = FLT4 (human) (UniProt P35916)
PAK7 (human) = PAK7 (human) (UniProt Q9P286)
MERTK (human) = MERTK (human) (UniProt Q12866)
PRKCB2 (human) = PRKCB2 (human) (UniProt P05771)
EPHA7 (human) = EPHA7 (human) (UniProt Q15375)
IRAK1 (human) = IRAK1 (human) (UniProt P51617)
CSNK1G1 (human) = CSNK1G1 (human) (UniProt Q9HCP0)
EPHA1 (human) = EPHA1 (human) (UniProt P21709)
TAOK2 (human) = TAOK2 (human) (UniProt Q9UL54)
[2] = test system: CHEK2 (human), O96017 [R145W]
RPS6KA6 KD1 KD2 (human) = RPS6KA6 KD1 KD2 (human) (UniProt Q9UK32)
TLK2 (human) = TLK2 (human) (UniProt Q86UE8)
[3] = test system: KIT (human), P10721 [D816H]
CAMK1D (human) = CAMK1D (human) (UniProt Q8IU85)
[4] = test system: FGFR2 (human), P21802 [N549H]

HCK (human), sequence (P08631 whole entry, looked up): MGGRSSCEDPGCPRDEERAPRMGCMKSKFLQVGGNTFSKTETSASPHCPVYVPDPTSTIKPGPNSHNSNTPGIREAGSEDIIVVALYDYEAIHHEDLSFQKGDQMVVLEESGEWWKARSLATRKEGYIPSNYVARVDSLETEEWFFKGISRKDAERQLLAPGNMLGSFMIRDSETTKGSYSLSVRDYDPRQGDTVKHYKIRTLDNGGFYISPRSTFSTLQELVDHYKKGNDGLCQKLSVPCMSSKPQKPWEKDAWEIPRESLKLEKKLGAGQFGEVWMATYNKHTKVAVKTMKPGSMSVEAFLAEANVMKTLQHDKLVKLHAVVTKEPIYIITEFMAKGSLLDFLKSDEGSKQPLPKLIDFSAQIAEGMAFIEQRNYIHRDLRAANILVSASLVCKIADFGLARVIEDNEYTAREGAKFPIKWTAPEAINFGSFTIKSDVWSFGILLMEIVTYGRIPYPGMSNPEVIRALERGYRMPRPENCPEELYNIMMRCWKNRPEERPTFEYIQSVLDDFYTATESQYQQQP

For `Cc1n[nH]c2c1c(=O)n(CCCN)c1ccc(Cl)cc21`, which residual activity (GSK3A (human); compound 1.0 µM) is on record?
The residual activity was 107%.

What about the residual activity (EPHA5 (human); compound 1.0 µM) of the same molecule?
Its residual activity is 94%.

And the residual activity (ITK (human); compound 1.0 µM)?
The residual activity was 127%.

What about the residual activity (HCK (human); compound 1.0 µM) of the same molecule?
Its residual activity is 148%.

And the residual activity ([1]; compound 1.0 µM)?
Its residual activity is 5%.

What about the residual activity (PRKG1 (human); compound 1.0 µM) of the same molecule?
Its residual activity is 95%.

What about the residual activity (CDC42BPB (human); compound 1.0 µM) of the same molecule?
Its residual activity is 105%.

And the residual activity (BMX (human); compound 1.0 µM)?
The residual activity was 94%.

What about the residual activity (SRPK1 (human); compound 1.0 µM) of the same molecule?
Its residual activity is 106%.

And the residual activity (PRKD2 (human); compound 1.0 µM)?
Its residual activity is 56%.

What about the residual activity (INSR (human); compound 1.0 µM) of the same molecule?
Its residual activity is 103%.

And the residual activity (SGK3 (human); compound 1.0 µM)?
The residual activity was 94%.

And the residual activity (EPHB2 (human); compound 1.0 µM)?
Its residual activity is 239%.

And the residual activity (FGR (human); compound 1.0 µM)?
Its residual activity is 71%.

And the residual activity (PAK2 (human); compound 1.0 µM)?
Its residual activity is 106%.

And the residual activity (YES1 (human); compound 1.0 µM)?
Its residual activity is 77%.

What about the residual activity (NEK7 (human); compound 1.0 µM) of the same molecule?
Its residual activity is 105%.

And the residual activity (LYN (human); compound 1.0 µM)?
The residual activity was 99%.

And the residual activity (TYRO3 (human); compound 1.0 µM)?
Its residual activity is 111%.

And the residual activity (NTRK1 (human); compound 1.0 µM)?
Its residual activity is 46%.

What about the residual activity (MARK1 (human); compound 1.0 µM) of the same molecule?
The residual activity was 4%.

And the residual activity (TSSK2 (human); compound 1.0 µM)?
The residual activity was 56%.

What about the residual activity (DMPK (human); compound 1.0 µM) of the same molecule?
Its residual activity is 114%.

What about the residual activity (DDR2 (human); compound 1.0 µM) of the same molecule?
The residual activity was 107%.

What about the residual activity (SYK (human); compound 1.0 µM) of the same molecule?
Its residual activity is 65%.

Which residual activity (GSK3A (human); compound 1.0 µM) does the source give for `C[C@@H](Nc1nc2c(C#CC3CC3)c[nH]c(=O)c2c2cc(-c3cn[nH]c3)ccc12)C(C)(C)C` here?
Its residual activity is 107%.

What about the residual activity (EPHA5 (human); compound 1.0 µM) of the same molecule?
The residual activity was 109%.

And the residual activity (ITK (human); compound 1.0 µM)?
The residual activity was 113%.

And the residual activity (HCK (human); compound 1.0 µM)?
Its residual activity is 31%.

What about the residual activity ([1]; compound 1.0 µM) of the same molecule?
The residual activity was 9%.

And the residual activity (PRKG1 (human); compound 1.0 µM)?
Its residual activity is 97%.

What about the residual activity (PRKX (human); compound 1.0 µM) of the same molecule?
The residual activity was 103%.

What about the residual activity (CDC42BPB (human); compound 1.0 µM) of the same molecule?
The residual activity was 99%.

What about the residual activity (FLT4 (human); compound 1.0 µM) of the same molecule?
The residual activity was 2%.

What about the residual activity (BMX (human); compound 1.0 µM) of the same molecule?
The residual activity was 89%.

And the residual activity (PAK7 (human); compound 1.0 µM)?
The residual activity was 103%.

And the residual activity (MERTK (human); compound 1.0 µM)?
Its residual activity is 8%.

What about the residual activity (PRKCB2 (human); compound 1.0 µM) of the same molecule?
The residual activity was 105%.

What about the residual activity (EPHA7 (human); compound 1.0 µM) of the same molecule?
Its residual activity is 102%.

And the residual activity (SRPK1 (human); compound 1.0 µM)?
Its residual activity is 104%.

And the residual activity (IRAK1 (human); compound 1.0 µM)?
The residual activity was 102%.

And the residual activity (PRKD2 (human); compound 1.0 µM)?
The residual activity was 96%.

What about the residual activity (INSR (human); compound 1.0 µM) of the same molecule?
The residual activity was 107%.

And the residual activity (CSNK1G1 (human); compound 1.0 µM)?
The residual activity was 97%.

And the residual activity (SGK3 (human); compound 1.0 µM)?
The residual activity was 104%.

What about the residual activity (EPHB2 (human); compound 1.0 µM) of the same molecule?
The residual activity was 92%.

And the residual activity (EPHA1 (human); compound 1.0 µM)?
The residual activity was 99%.

What about the residual activity (FGR (human); compound 1.0 µM) of the same molecule?
Its residual activity is 57%.

What about the residual activity (PAK2 (human); compound 1.0 µM) of the same molecule?
Its residual activity is 99%.

What about the residual activity (TAOK2 (human); compound 1.0 µM) of the same molecule?
Its residual activity is 101%.

And the residual activity (YES1 (human); compound 1.0 µM)?
The residual activity was 63%.

And the residual activity (NEK7 (human); compound 1.0 µM)?
Its residual activity is 111%.

What about the residual activity ([2]; compound 1.0 µM) of the same molecule?
Its residual activity is 12%.

What about the residual activity (RPS6KA6 KD1 KD2 (human); compound 1.0 µM) of the same molecule?
Its residual activity is 12%.

And the residual activity (LYN (human); compound 1.0 µM)?
The residual activity was 72%.

And the residual activity (TYRO3 (human); compound 1.0 µM)?
The residual activity was 94%.

And the residual activity (NTRK1 (human); compound 1.0 µM)?
Its residual activity is 10%.

And the residual activity (MARK1 (human); compound 1.0 µM)?
The residual activity was 61%.

And the residual activity (TLK2 (human); compound 1.0 µM)?
The residual activity was 80%.

What about the residual activity ([3]; compound 1.0 µM) of the same molecule?
Its residual activity is 9%.

And the residual activity (TSSK2 (human); compound 1.0 µM)?
The residual activity was 106%.

And the residual activity (DMPK (human); compound 1.0 µM)?
The residual activity was 100%.

What about the residual activity (DDR2 (human); compound 1.0 µM) of the same molecule?
The residual activity was 101%.

What about the residual activity (SYK (human); compound 1.0 µM) of the same molecule?
The residual activity was 105%.

And the residual activity (CAMK1D (human); compound 1.0 µM)?
The residual activity was 55%.

And the residual activity ([4]; compound 1.0 µM)?
The residual activity was 23%.

`CC(C)(C)c1nc2c3ccc(F)cc3c3c(=O)[nH]ccc3c2[nH]1` was tested. Which residual activity (MERTK (human); compound 10.0 µM) did it give?
Its residual activity is 28%.

Which residual activity (GSK3A (human); compound 10.0 µM) does the source give for `O=C(N[C@@H](COc1ccc2[nH]c(=O)[nH]c2c1)c1ccccc1)c1cccn(Cc2ccc(F)c(F)c2)c1=O` here?
The residual activity was 102%.

What about the residual activity (EPHA5 (human); compound 10.0 µM) of the same molecule?
Its residual activity is 99%.

And the residual activity (ITK (human); compound 10.0 µM)?
The residual activity was 108%.

What about the residual activity (HCK (human); compound 10.0 µM) of the same molecule?
Its residual activity is 110%.

And the residual activity ([1]; compound 10.0 µM)?
The residual activity was 99%.

And the residual activity (PRKG1 (human); compound 10.0 µM)?
Its residual activity is 111%.

What about the residual activity (PRKX (human); compound 10.0 µM) of the same molecule?
The residual activity was 107%.

What about the residual activity (CDC42BPB (human); compound 10.0 µM) of the same molecule?
Its residual activity is 101%.

What about the residual activity (FLT4 (human); compound 10.0 µM) of the same molecule?
The residual activity was 109%.

What about the residual activity (BMX (human); compound 10.0 µM) of the same molecule?
The residual activity was 139%.

What about the residual activity (PAK7 (human); compound 10.0 µM) of the same molecule?
The residual activity was 100%.

And the residual activity (MERTK (human); compound 10.0 µM)?
The residual activity was 95%.

And the residual activity (PRKCB2 (human); compound 10.0 µM)?
Its residual activity is 96%.

What about the residual activity (EPHA7 (human); compound 10.0 µM) of the same molecule?
Its residual activity is 103%.

What about the residual activity (SRPK1 (human); compound 10.0 µM) of the same molecule?
Its residual activity is 104%.

And the residual activity (IRAK1 (human); compound 10.0 µM)?
Its residual activity is 100%.

What about the residual activity (PRKD2 (human); compound 10.0 µM) of the same molecule?
Its residual activity is 110%.

What about the residual activity (INSR (human); compound 10.0 µM) of the same molecule?
The residual activity was 98%.

What about the residual activity (CSNK1G1 (human); compound 10.0 µM) of the same molecule?
The residual activity was 102%.

And the residual activity (SGK3 (human); compound 10.0 µM)?
Its residual activity is 117%.

What about the residual activity (EPHB2 (human); compound 10.0 µM) of the same molecule?
The residual activity was 90%.

What about the residual activity (EPHA1 (human); compound 10.0 µM) of the same molecule?
The residual activity was 107%.

What about the residual activity (FGR (human); compound 10.0 µM) of the same molecule?
The residual activity was 100%.

And the residual activity (PAK2 (human); compound 10.0 µM)?
Its residual activity is 94%.

What about the residual activity (TAOK2 (human); compound 10.0 µM) of the same molecule?
Its residual activity is 98%.

And the residual activity (YES1 (human); compound 10.0 µM)?
Its residual activity is 91%.

And the residual activity (NEK7 (human); compound 10.0 µM)?
The residual activity was 102%.

And the residual activity ([2]; compound 10.0 µM)?
The residual activity was 96%.

What about the residual activity (RPS6KA6 KD1 KD2 (human); compound 10.0 µM) of the same molecule?
Its residual activity is 113%.

And the residual activity (LYN (human); compound 10.0 µM)?
The residual activity was 115%.

And the residual activity (TYRO3 (human); compound 10.0 µM)?
The residual activity was 118%.

What about the residual activity (NTRK1 (human); compound 10.0 µM) of the same molecule?
The residual activity was 108%.

And the residual activity (MARK1 (human); compound 10.0 µM)?
The residual activity was 99%.

What about the residual activity (TLK2 (human); compound 10.0 µM) of the same molecule?
Its residual activity is 100%.

And the residual activity ([3]; compound 10.0 µM)?
The residual activity was 97%.

And the residual activity (TSSK2 (human); compound 10.0 µM)?
Its residual activity is 115%.

And the residual activity (DMPK (human); compound 10.0 µM)?
Its residual activity is 105%.

And the residual activity (DDR2 (human); compound 10.0 µM)?
The residual activity was 118%.

What about the residual activity (SYK (human); compound 10.0 µM) of the same molecule?
Its residual activity is 102%.

And the residual activity (CAMK1D (human); compound 10.0 µM)?
The residual activity was 95%.

And the residual activity ([4]; compound 10.0 µM)?
Its residual activity is 106%.
